Assay results taken from PMC8279415, “Targeting Acute Myelogenous Leukemia Using Potent Human Dihydroorotate Dehydrogenase Inhibitors Based on the 2-Hydroxypyrazolo[1,5-a]pyridine Scaffold: SAR of the Biphenyl Moiety” (Journal of Medicinal Chemistry, 2021).
≈ marks a conversion by molar mass, not a printed value. Entries after “also recorded” stand apart in the source; their conditions may differ. Read-outs that look alike come from different tables or passages of the source.

How the values were obtained:
[1] = Protein binding in vitro (ultrafiltration); assay type: in vitro ADME; conditions: male, human serum, 37 °C, read-out: protein binding (% bond) (converted)
Procedure: This was achieved via ultrafiltration using commercially available membrane systems (Centrifree ultrafiltration devices with ultracel YM-T membrane, Merck). […] 1 mL of the solution obtained in the sample reservoir of the ultrafiltration device was gently shaken in an orbital shaker at 37 °C for 1 h. […] The concentrations of the compounds in the ultrafiltrate and filtrate were determined using reverse-phase UHPLC, and the chromatographic conditions were those described above with different injection volumes: 20 μL for ultrafiltrate samples and 2 μL for filtrate samples.

[2] = LogD7.4, shake-flask n-octanol/PBS; conditions: n-octanol/PBS, pH 7.4
Procedure: The partition coefficients between n-octanol and PBS at pH 7.4 (LogD^7.4) were obtained using the shake-flask technique at room temperature. In the shake-flask experiments, 50 mM phosphate buffered saline, pH 7.4, was used as the aqueous phase. The organic (n-octanol) and aqueous phases were mutually saturated by shaking for 4 h. The compounds were solubilized in the buffered aqueous phase at the highest concentration compatible with solubility, and appropriate amounts of n-octanol were added. The two phases were shaken for about 20 min, by which time the partitioning equilibrium of solutes had been reached, and then centrifuged (10 000 rpm, 10 min). The concentration of the solutes was measured in the aqueous phase using a UV spectrophotometer (Varian Cary 50BIO); absorbance values (recorded for each compound at the wavelength of maximum absorption) were interpolated in calibration curves obtained using standard solutions of the compounds (r^2 > 0.99). Each log D value is an average of at least six measurements.

recombinant hDHODH = molecular target: T1, recombinant hDHODH (Homo sapiens, UniProt Q02127); assay: hDHODH inhibition assay (DCIP reduction); assay type: biochemical
T1 construct: made in house; host or cells: E. coli BL21DE3 PyrD
Procedure: BL21DE3 PyrD E. coli cells were transformed using the plasmid construct pFN2A–hDHODH (kindly given by Department of Drug Science and Technology, University of Turin, Turin, Italy). The vector produces hDHODH as an N-terminal GST-fusion protein. Cells were grown at 37 °C in LB medium supplemented with 0.1 mM flavin mononucleotide (Cayman Chemical). […] Triton X-100 was added to the lysate, to a final concentration of 1%, before centrifugation at 14 000g for 40 min at 4 °C. The clarified supernatant was incubated with DNase I for 30 min at room temperature, supplemented with 2 mM dithiothreitol (DTT), and filtered through a 0.45 μm syringe filter as previously described by Sainas et al.[18] The GST-fused enzyme was purified from the bacterial lysate using affinity chromatography on immobilized glutathione-Sepharose columns (GE- […]). The GST tag was not cleaved for further analysis. All the reagents used in the protein expression and purification were supplied by Merck/Sigma-Aldrich if not otherwise specified.
The enzymatic inhibition assay was optimized for being performed on a 96-well plate and to achieve higher throughput. For each well of the plate a total volume of 200 μL was used: 5 μL of purified GST-hDHODH; 60 μL of 2,6-dichloroindophenol (DCIP) 50 μM; 20 μL of coenzyme Q10 enzyme 100 μM; 20 μL of dihydroorotate (DHO) 500 μM; Tris-HCl, pH 8, up to a final volume of 200 μL. Inhibitory activity was assessed by monitoring the reduction of DCIP, which is associated with the oxidation of dihydroorotate as catalyzed by the DHODH enzyme. The enzyme was preincubated for 5 min at 37 °C in Tris-HCl, pH 8, with coenzyme Q10, with DCIP (50 μM), and with the compounds to be tested used at different concentrations (final DMSO concentration 0.1% v/v). The reaction was initiated by the addition of DHO (500 μM), and the absorbance kinetic reduction was monitored at λ = 650 nm using a multiplate reader (Tecan, M1000Pro). In order to assess the minimum and maximum absorbance values of the enzymatic reaction, a Min control value was obtained by measuring the absorbance without DHO. Similarly, a Max value was obtained by measuring the absorbance with DHO but no inhibitor. A blank reduction calculation was also performed by measuring the absorbance values using 180 μL of Tris-HCl and 20 μL of coenzyme Q10. The instrument was set to read the absorbance values every 10 s for a total read time of 10 min at 37 °C. […] Values are the mean ± SE of three independent experiments.

THP1 cells [3] = assay: Fixed-concentration screening of differentiation (CD14) and apoptosis (annexin V) in THP1, with or without uridine; assay type: cell-based, human
Procedure: DMSO (dimethyl sulfoxide) acts as the negative control group as it was used to solubilize hDHODH inhibitors. ∗, ∗∗, ∗∗∗ represent the statistical significance for apoptosis (respectively p < 0.05, < 0.01, and <0.001). #, ##, and ### represent the statistical significance for differentiation (respectively p < 0.05, <0.01, and <0.001). The statistical significance is calculated by comparing the compounds to DMSO.
The statistical significance is calculated by comparing the compounds to DMSO.

U937 cells [4] = assay: Annexin V apoptosis assay in U937; conditions: Homo sapiens, U-937, 72 h, read-out: apoptosis EC50 U937 (CL 95%)
U937 cells [5] = assay: Differentiation assay (CD11b expression) in U937; conditions: Homo sapiens, U-937, 72 h, read-out: differentiation EC50 U937 (CL 95%)
THP1 cells [6] = assay: Annexin V apoptosis assay in THP1; conditions: Homo sapiens
[7] = Solubility assay at pH 7.4 in PBS; assay type: physicochemical; conditions: pH 7.4, 25 °C, 24 h, LOD 6 μM; for solubility at 24 h: phosphate buffered saline
Procedure: These suspensions were filtered through a PTFE 0.45 μm filter (VWR), and the solutions were chromatographically analyzed using a PerkinElmer ultrahigh performance liquid chromatography (UHPLC) instrument, equipped with a reverse-phase (RP) C18 Phenomenex column (2.1 mm × 100 mm, 1.7 μm particle size). […] The flow rate was 0.5 mL/min. Standard injection volumes were either 2 or 4 μL for poorly soluble compounds. The detection system was a PerkinElmer diode array detector. The wavelengths that were monitored for each compound were defined according to the compound’s own absorption spectrum. Solubility, expressed as μM concentration of the saturated solution, was calculated via interpolation with external calibration curves that were obtained with solutions of each compound in acetonitrile.

Jurkat cells = assay: CFSE-based cytotoxic activity assay; conditions: concentration inducing cytotoxicity ≥30%, 3 days
THP1 cells [8] = assay: Differentiation assay (CD14 expression) in THP1; conditions: Homo sapiens
[9] = In vitro metabolic profile in rat-liver microsomes; assay type: in vitro ADME
Procedure: SyGMa (systematic generation of potential metabolites) software, a tool that lists predicted metabolites with associated empirical probability scores, was used to identify putative metabolites, which were then investigated by analyzing samples with liquid chromatography coupled to high-resolution mass spectrometry (HPLC–HRMS). […] The full-scan MS data acquired for all of the samples were analyzed to find the m/z values of the predicted molecular structures. In order to exclude interfering signals, the results obtained were compared to blank samples and common background peaks were not considered.
Rat-liver microsomes (Sprague-Dawley, male, Sigma-Aldrich; 20 mg/mL protein concentration) were incubated with the candidate compound solution (5 μM final concentration, with 1% DMSO) and Tris buffer (0.1 M, pH = 7.4). The regenerating system, which slowly generated coenzyme units over the incubation time, leading to a better reproduction of in vivo behavior, was composed of MgCl2 (3.3 mM), NADP^+ (1.3 mM), Glu6P (3.5 mM), and Glu6P dehydrogenase (0.5 U/mL).
The incubation time started with the addition of the microsomes suspension (0.5 mg/mL).
Metabolic reactions were stopped by adding 100 μL of cooled acetonitrile to the 100 μL sample of the incubation mixture. Samples were centrifuged to provoke protein precipitation, and the supernatants were immediately stocked at −80 °C, until analysis, to prevent the potential degradation of unstable products.
The products of in vitro metabolism were identified using a high-resolution mass spectrometer (Q-Exactive Orbitrap, Thermo Scientific) coupled to an HPLC instrument (1200 system Agilent). All analytes were separated on an Ascentis C18 column (150 mm × 2.1 mm, 5 μm particle size) maintained at 35 °C. The elution mixture was composed of solvent A (0.1% formic acid in water for positive ionization mode and 0.05% acetic acid for negative ionization mode) and solvent B (acetonitrile). […] MS2-DIA scans were acquired at R = 17 500 and with variable collision energies ranging from 30 to 45, depending on the m/z of the parent ion.

[10] = mean ± SE of three independent experiments, read-out: hDHODH, IC50 ± SE
[11] = supplementary CSV, values differ from Table 2, read-out: hDHODH IC50 ± SE (supplement CSV)
[12] = THP-1, 72 h, read-out: apoptosis EC50 THP1 (CL 95%)
[13] = THP-1, read-out: Apoptosis EC50 (C.L.95%) (supplement CSV)
[14] = THP-1, 72 h, read-out: differentiation EC50 THP1 (CL 95%)
[15] = THP-1, read-out: Differentiation EC50 (C.L.95%) (supplement CSV)

T1 sequence (Q02127 whole entry): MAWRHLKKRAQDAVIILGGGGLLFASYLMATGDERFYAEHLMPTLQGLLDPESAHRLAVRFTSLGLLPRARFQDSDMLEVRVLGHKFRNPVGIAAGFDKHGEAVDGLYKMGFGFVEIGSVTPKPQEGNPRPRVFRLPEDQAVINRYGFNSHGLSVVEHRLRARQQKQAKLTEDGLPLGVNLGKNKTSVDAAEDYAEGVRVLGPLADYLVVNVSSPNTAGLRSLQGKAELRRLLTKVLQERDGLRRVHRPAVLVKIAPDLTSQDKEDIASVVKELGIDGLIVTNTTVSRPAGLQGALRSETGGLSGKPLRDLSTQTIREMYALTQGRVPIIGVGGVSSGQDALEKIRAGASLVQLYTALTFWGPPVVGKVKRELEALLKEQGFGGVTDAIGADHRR

SMILES | fraction unbound at 1 h, 50 µM [1] | logD [2] | IC50 (recombinant hDHODH; [10]) [µM] | IC50 (recombinant hDHODH; [11]) [µM] | activity in cells (differentiation and apoptosis) (THP1 cells [3]; THP1, 1 μM) | EC50 (U937 cells [4]) [µM] | EC50 (U937 cells [5]) [µM] | EC50 (THP1 cells [6]; [12]) [µM] | EC50 (THP1 cells [6]; [13]) [µM] | solubility in PBS [7] | solubility at 24 h [7] [µM] | activity in cells (differentiation and apoptosis) (THP1 cells [3]; THP1, 0.1 μM) | cytoxicity Jurkat (effect ≥30% ± SD) (Jurkat cells) [µM] | EC50 (THP1 cells [8]; [14]) [µM] | EC50 (THP1 cells [8]; [15]) [µM] | metabolites identified in sample C ([9]; active rat-liver microsomes and regenerating system, HPLC-HRMS) | parent compound recovered ([9]; rat-liver microsomes with regenerating system, 2 h incubation) [%] | metabolic stability ([9]; rat-liver microsomes, 2 h)
Cc1c(-c2ccc(-c3ccccc3F)cc2)nc2ccc(F)cc2c1C(=O)O [Brequinar, reference compound] | 0.0117 |  |  |  |  |  |  |  |  |  |  |  |  |  |  |  |  | 
O=C(Nc1c(F)c(F)c(-c2cccnc2)c(F)c1F)c1c(O)nn2ccccc12 [Compound 8, 2-Hydroxy-N-(2,3,5,6-tetrafluoro-4-(pyridin-3-yl)phenyl)pyrazolo[1,5-a]pyridine-3-carboxamide] | 0.0042 | 0.98 ± 0.03 | 0.00623 ± 0.00063 | 0.00719 ± 0.00019 | basically inactive |  |  |  |  |  |  |  |  |  |  |  |  | 
O=C(Nc1c(F)c(F)c(-c2cccc(F)c2)c(F)c1F)c1c(O)nn2ccccc12 [Compound 11, 2-Hydroxy-N-(2,3,3′,5,6-pentafluoro-[1,1′-biphenyl]-4-yl)pyrazolo[1,5-a]pyridine-3-carboxamide] | 0.0004 | 2.09 ± 0.04 | 0.00203 ± 0.00044 | 0.00237 ± 0.00035 |  | 0.0682 | 0.0407 | 0.25 | 0.222 | <LOD | < 6 | highly active | 39 ± 3 | 0.0676 | 0.0589 |  |  | 
O=C(Nc1c(F)c(F)c(-c2cccc(C(F)(F)F)c2)c(F)c1F)c1c(O)nn2ccccc12 [Compound 13, 2-Hydroxy-N-(2,3,5,6-tetrafluoro-3′-(trifluoromethyl)-[1,1′-biphenyl]-4-yl)pyrazolo[1,5-a]pyridine-3-carboxamide] | 0.0006 | 2.69 ± 0.03 | 0.00634 ± 0.00063 | 0.00301 ± 0.00037 |  | 0.06 | 0.0342 | 0.0511 | 0.0429 | <LOD | < 6 | highly active | >100 | 0.0383 | 0.032 |  |  | 
O=C(Nc1c(F)c(F)c(-c2cccc(OC(F)(F)F)c2)c(F)c1F)c1c(O)nn2ccccc12 [Compound 15, 2-Hydroxy-N-(2,3,5,6-tetrafluoro-3′-(trifluoromethoxy)-[1,1′-biphenyl]-4-yl)pyrazolo[1,5-a]pyridine-3-carboxamide] |  | 3.27 ± 0.19 |  | 0.00262 ± 0.00079 |  | 0.0353 | 0.0086 | 0.0396 | 0.0326 |  | 8.1 (≈ 3.93 µg/mL) | highly active | >100 | 0.0315 | 0.028 | did not identify appreciable concentration of metabolites | 100 | metabolically stable; also recorded: good metabolic stability
COc1cccc(-c2c(F)c(F)c(NC(=O)c3c(O)nn4ccccc34)c(F)c2F)c1 [Compound 16, 2-Hydroxy-N-(2,3,5,6-tetrafluoro-3′-methoxy-[1,1′-biphenyl]-4-yl)pyrazolo[1,5-a]pyridine-3-carboxamide] | 0.0005 |  |  | 0.00147 ± 0.00033 |  | 0.0428 | 0.0311 | 0.0379 | 0.0296 |  | 74.3 (≈ 32 µg/mL) | highly active | 68 ± 7 | 0.0312 | 0.0269 |  |  | 
